Read-outs that look alike come from different tables or passages of the source.
Assays:
Type in all cases: in vitro ADME
human CYP enzymes = experiment: CYP induction, all isoforms tested (summary)
From the text: (§1) The inhibition of cytochrome P450 (CYP) isoforms and a range of cellular transporters (except multidrug and toxin extrusion [MATE] proteins), as well as the induction of CYP isoforms were investigated using previously described methods.

CYP 2B6 = molecular target: T1, CYP 2B6 (Homo sapiens, UniProt P20813); experiment: CYP inhibition with probe substrate; conditions: probe substrate bupropion
T1 sequence (P20813 1-491): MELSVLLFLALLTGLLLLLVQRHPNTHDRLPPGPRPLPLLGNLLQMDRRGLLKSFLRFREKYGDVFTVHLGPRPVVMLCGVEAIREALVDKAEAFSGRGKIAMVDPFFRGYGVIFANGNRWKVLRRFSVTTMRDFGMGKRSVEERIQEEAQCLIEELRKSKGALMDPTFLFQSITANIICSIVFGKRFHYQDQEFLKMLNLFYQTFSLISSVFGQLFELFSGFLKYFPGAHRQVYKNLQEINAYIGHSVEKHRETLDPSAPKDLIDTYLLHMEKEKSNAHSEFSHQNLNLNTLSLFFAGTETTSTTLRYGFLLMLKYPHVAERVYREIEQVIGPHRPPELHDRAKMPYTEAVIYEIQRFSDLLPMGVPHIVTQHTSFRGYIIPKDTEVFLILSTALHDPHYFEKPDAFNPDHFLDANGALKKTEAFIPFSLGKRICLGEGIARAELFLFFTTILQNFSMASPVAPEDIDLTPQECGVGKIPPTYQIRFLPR
From the text: as §1

CYP 2E1 = CYP 2E1 (Homo sapiens, UniProt P05181); experiment: CYP inhibition with probe substrate; conditions: coincubation, probe substrate chlorzoxazone; read-out: Co- IC50
From the text: as §1

CYP 2D6 = CYP 2D6 (Homo sapiens, UniProt P10635); experiment: CYP inhibition with probe substrate; conditions: probe substrate dextromethorphan
From the text: as §1

CYP 2C9 = CYP 2C9 (Homo sapiens, UniProt P11712); experiment: CYP inhibition with probe substrate; conditions: probe substrate diclofenac
From the text: as §1

CYP 1A2 = molecular target: T2, CYP 1A2 (Homo sapiens, UniProt P05177); experiment: CYP inhibition with probe substrate; conditions: probe substrate phenacetin
T2 sequence (P05177 1-516): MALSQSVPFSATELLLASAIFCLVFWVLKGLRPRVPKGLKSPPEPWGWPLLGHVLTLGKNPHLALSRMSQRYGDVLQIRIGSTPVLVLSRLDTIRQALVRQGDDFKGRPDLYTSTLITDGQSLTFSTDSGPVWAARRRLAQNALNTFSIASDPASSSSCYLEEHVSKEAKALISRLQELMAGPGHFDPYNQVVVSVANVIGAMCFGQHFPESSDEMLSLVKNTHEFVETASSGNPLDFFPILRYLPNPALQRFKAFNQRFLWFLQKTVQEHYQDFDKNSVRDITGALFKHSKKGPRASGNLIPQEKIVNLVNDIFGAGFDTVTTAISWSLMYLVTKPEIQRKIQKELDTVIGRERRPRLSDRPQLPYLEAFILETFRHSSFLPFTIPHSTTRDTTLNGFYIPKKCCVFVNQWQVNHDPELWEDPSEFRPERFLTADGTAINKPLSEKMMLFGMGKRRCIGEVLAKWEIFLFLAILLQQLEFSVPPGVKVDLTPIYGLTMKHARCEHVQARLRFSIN
From the text: as §1

CYP 2C8 = molecular target: T3, CYP 2C8 (Homo sapiens, UniProt P10632); experiment: CYP inhibition with probe substrate; conditions: probe substrate amodiaquine
T3 sequence (P10632 1-490): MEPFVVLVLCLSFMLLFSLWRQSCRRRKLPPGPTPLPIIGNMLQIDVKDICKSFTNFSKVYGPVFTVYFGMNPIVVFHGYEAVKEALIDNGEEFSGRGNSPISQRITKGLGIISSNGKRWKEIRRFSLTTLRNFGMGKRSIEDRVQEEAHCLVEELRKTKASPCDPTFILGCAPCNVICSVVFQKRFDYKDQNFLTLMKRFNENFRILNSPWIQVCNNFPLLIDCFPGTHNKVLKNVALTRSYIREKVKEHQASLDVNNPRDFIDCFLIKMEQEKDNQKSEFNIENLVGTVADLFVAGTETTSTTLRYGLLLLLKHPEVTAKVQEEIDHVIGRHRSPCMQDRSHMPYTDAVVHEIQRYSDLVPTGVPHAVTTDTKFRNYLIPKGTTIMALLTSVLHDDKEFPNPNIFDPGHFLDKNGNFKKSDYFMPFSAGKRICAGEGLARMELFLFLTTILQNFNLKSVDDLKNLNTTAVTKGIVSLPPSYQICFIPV
From the text: as §1

[1] = 30-min preincubation, read-out: Pre- IC50 (+ NADPH)
[2] = coincubation, read-out: Co- IC50

Sequence of CYP 2E1 (P05181 whole entry): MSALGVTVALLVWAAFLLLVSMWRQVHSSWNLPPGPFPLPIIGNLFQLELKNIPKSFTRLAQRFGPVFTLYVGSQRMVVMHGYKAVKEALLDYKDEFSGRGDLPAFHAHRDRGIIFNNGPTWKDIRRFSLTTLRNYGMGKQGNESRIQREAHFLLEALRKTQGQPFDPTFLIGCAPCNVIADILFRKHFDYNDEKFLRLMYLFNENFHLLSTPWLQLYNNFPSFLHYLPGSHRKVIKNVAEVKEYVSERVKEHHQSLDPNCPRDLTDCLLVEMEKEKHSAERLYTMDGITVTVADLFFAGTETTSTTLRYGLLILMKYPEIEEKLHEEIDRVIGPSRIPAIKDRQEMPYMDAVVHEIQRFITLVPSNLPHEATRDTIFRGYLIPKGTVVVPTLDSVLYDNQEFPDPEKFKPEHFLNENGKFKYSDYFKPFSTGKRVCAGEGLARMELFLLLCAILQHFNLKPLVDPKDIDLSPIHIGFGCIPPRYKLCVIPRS
Sequence of CYP 2C9 (P11712 whole entry): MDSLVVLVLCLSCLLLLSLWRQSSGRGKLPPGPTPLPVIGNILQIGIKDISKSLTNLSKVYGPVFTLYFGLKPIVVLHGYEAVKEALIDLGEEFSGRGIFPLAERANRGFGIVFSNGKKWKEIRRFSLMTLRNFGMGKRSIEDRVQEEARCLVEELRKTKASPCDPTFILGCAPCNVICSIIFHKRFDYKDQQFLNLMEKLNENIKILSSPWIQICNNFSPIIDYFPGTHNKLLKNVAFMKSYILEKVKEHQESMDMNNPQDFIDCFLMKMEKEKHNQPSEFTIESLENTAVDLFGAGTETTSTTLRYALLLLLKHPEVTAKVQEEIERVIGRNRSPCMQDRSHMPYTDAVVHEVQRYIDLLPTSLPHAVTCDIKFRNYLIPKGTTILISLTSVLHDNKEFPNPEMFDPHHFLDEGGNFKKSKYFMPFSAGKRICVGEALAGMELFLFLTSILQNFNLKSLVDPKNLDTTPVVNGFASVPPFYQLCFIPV
Sequence of CYP 2D6 (P10635 whole entry): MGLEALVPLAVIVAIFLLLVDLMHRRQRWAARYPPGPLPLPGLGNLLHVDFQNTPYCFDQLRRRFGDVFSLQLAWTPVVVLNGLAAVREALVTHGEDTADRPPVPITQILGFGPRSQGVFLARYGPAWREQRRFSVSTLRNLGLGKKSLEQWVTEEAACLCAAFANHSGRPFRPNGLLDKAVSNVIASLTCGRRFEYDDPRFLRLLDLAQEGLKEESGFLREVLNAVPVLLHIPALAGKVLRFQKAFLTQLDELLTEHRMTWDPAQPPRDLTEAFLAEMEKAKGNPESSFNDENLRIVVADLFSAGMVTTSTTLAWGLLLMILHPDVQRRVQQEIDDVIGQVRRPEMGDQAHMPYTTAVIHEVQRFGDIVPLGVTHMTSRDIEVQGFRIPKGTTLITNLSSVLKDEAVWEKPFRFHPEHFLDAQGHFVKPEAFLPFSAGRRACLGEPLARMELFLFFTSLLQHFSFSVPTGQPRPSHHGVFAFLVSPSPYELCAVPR

Row | SMILES | concentration up to which induction of CYP mRNA or activity was absent (human CYP enzymes) | IC50 (CYP 2B6; [1]) | IC50 (CYP 2B6; [2]) | TDI (time-dependent inhibition) (CYP 2B6) | IC50 (CYP 2E1) | IC50 (CYP 2D6; [1]) | IC50 (CYP 2D6; [2]) | TDI (time-dependent inhibition) (CYP 2D6) | IC50 (CYP 2C9; [1]) | IC50 (CYP 2C9; [2]) | TDI (time-dependent inhibition) (CYP 2C9) | IC50 (CYP 1A2; [1]) | IC50 (CYP 1A2; [2]) | TDI (time-dependent inhibition) (CYP 1A2) | IC50 (CYP 2C8; [1]) | IC50 (CYP 2C8; [2]) | TDI (time-dependent inhibition) (CYP 2C8)
1 | CC1CS(=O)(=O)CCN1n1cc(SCC(N)C(=O)O)ccc1=O (stereo not drawn) [M-4] | ≤ 80 µg/mL | > 20 µM | > 20 µM | No | > 20 µM | > 20 µM | > 20 µM | No | > 20 µM | > 20 µM | No | > 20 µM | > 20 µM | No | > 20 µM | > 20 µM | No
2 | CC1CS(=O)(=O)CCN1N (stereo not drawn) [M-6] | ≤ 90 µg/mL | > 100 µM | > 100 µM | No | > 100 µM | > 100 µM | > 100 µM | No | > 100 µM | > 100 µM | No | > 100 µM | > 100 µM | No | > 100 µM | > 100 µM | No
3 | CC1CS(=O)(=O)CCN1/N=C/c1ccc([N+](=O)[O-])o1 (stereo not drawn) [Nifurtimox, (E)-N-(3-methyl-1,1-dioxo-1,4-thiazinan-4-yl)-1-(5-nitrofuran-2-yl) methanimine, reference compound] | up to 30 mg/L | > 50 µM | > 50 µM | No | > 50 µM | > 50 µM | > 50 µM | No | > 50 µM | > 50 µM | No | > 50 µM | > 50 µM | No | > 50 µM | > 50 µM | No

Source: paper PMC10661964 (Current Drug Metabolism, 2023)
